Data taken from patent US12016958B2, “Method for delivering an agent to posterior segment of an eye and uses thereof” (NANO TARGETING & THERAPY BIOPHARMA INC., priority 2021, dated 2024).

Assay: Solubility of AXT in water
Assay type: physicochemical

Solubility in water: poorly soluble in water
Structure (SMILES): CNC(=O)c1ccccc1Sc1ccc2c(/C=C/c3ccccn3)n[nH]c2c1 [AXT, Axitinib]
